Patent EP3382005A2, “EX VIVO MODEL FOR NEURODEGENERATIVE DISEASES” (Neuro-Bio Ltd, priority 2017, dated 2018)
Square brackets hold non-standard residues; d marks the D form. Peptide text beside a SMILES is read from it. Phe(4-COOH) = N[C@@H](Cc1ccc(C(=O)O)cc1)C(=O)O; 2Nal = N[C@@H](Cc1ccc2ccccc2c1)C(=O)O; cisHyp = O=C(O)[C@@H]1C[C@H](O)CN1

Key:
[1] = molecular target: T1, alpha7 nicotinic receptor (Rattus norvegicus, UniProt Q05941); assay: Calcium influx test in PC12 cells; type: cell-based; conditions: compound alone, higher doses 1 µM to 10 µM
T1 construct: endogenous in cells; host or cells: PC12 cells

PC12 cells = assay: Cell viability test

T1 sequence (Q05941 23-502): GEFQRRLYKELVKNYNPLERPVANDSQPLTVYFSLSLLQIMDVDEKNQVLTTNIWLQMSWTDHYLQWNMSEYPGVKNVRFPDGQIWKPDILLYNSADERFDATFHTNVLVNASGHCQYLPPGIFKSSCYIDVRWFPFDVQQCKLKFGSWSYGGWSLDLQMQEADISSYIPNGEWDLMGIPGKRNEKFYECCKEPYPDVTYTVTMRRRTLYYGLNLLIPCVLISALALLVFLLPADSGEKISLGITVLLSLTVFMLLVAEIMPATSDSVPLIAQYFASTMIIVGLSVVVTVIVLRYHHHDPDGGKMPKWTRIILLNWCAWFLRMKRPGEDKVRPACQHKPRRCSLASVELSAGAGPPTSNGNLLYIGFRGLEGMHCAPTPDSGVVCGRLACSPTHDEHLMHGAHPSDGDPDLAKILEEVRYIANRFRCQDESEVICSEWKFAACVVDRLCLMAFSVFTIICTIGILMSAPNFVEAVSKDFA

**Q.** `CC(=O)N[C@@H](Cc1ccc2ccccc2c1)C(=O)N[C@@H](Cc1ccc(C(=O)O)cc1)C(=O)N1C[C@@H](O)C[C@H]1C(N)=O` [Tri01, 4-((S)-2-((S)-2-acetamido-3-(naphthalen-2-yl)propanamido)-3-((2S,4S)-2-carbamoyl-4-hydroxypyrrolidin-1-yl)-3-oxopropyl)benzoate] (Ac-[2Nal]-[Phe(4-COOH)]-[cisHyp]-NH2) was tested. Which “calcium influx by the specific alpha7 agonist PNU282987” value [1] did it give?
**A.** Its value is “inactive”.

**Q.** What about the PC12 cell viability (PC12 cells; compound alone, 0.1µM to 10µM) of the same compound?
**A.** Its PC12 cell viability is “toxic in a concentration-dependent manner”.

**Q.** What about the PC12 cell viability (PC12 cells; in the presence of T30 1µM) of the same compound?
**A.** Its PC12 cell viability is “potentiates the toxicity induced by T30”.
